Experiments:
[1] = AUC (0 to 8 hrs) in rat at 3 mg/kg, iv; type: ADME, organism-based; parameters: time < 8 hr, dose 3 mg/kg, route intravenous; settings: plasma
[2] = biological target: Protein kinase C beta type (Homo sapiens) (UniProt P05771); assay: Inhibition of PKCbeta2 at 2 uM
[3] = biological target: [Pyruvate dehydrogenase (acetyl-transferring)] kinase isozyme 1, mitochondrial (Homo sapiens) (UniProt Q15118); assay: Inhibition of PDK1 at 2 uM
[4] = biological target: Vascular endothelial growth factor receptor 1 (Homo sapiens) (UniProt P17948); assay: Inhibition of FLT-1 at 1 uM
[5] = Half life in mouse at 33 mg/kg, po; type: ADME, organism-based; parameters: dose 33 mg/kg, route oral; settings: in vivo
[6] = biological target: Mitogen-activated protein kinase 12 (Homo sapiens) (UniProt P53778); assay: Inhibition of P38gamma at 2 uM
[7] = biological target: Serine/threonine-protein kinase BRSK1 (Homo sapiens) (UniProt Q8TDC3); assay: Inhibition of BRSK1 at 1 uM
[8] = biological target: Ribosomal protein S6 kinase alpha-6 (Homo sapiens) (UniProt Q9UK32); assay: Inhibition of RSK4 at 1 uM
[9] = biological target: Serine/threonine-protein kinase Sgk1 (Homo sapiens, UniProt O00141); assay: Inhibition of SGK1
[10] = biological target: Ephrin type-B receptor 2 (Homo sapiens) (UniProt P29323); assay: Inhibition of EPH-B2 at 1 uM
[11] = biological target: Tyrosine-protein kinase Fer (Homo sapiens) (UniProt P16591); assay: Inhibition of FER at 1 uM
[12] = biological target: Serine/threonine-protein kinase D3 (Homo sapiens) (UniProt O94806); assay: Inhibition of PRKD3 at 1 uM
[13] = biological target: Death-associated protein kinase 1 (Homo sapiens) (UniProt P53355); assay: Inhibition of DAPK1 at 1 uM
[14] = biological target: Serine/threonine-protein kinase TBK1 (Homo sapiens) (UniProt Q9UHD2); assay: Inhibition of TBK1 at 1 uM
[15] = biological target: Insulin receptor-related protein (Homo sapiens) (UniProt P14616); assay: Inhibition of IRR at 1 uM
[16] = biological target: Proto-oncogene tyrosine-protein kinase Src (Homo sapiens, UniProt P12931); assay: Inhibition of SRC
[17] = biological target: Tyrosine-protein kinase receptor TYRO3 (Homo sapiens) (UniProt Q06418); assay: Inhibition of TYRO3 at 1 uM
[18] = biological target: Mitogen-activated protein kinase 13 (Homo sapiens) (UniProt O15264); assay: Inhibition of P38delta at 2 uM
[19] = Volume of distribution at steady state in rat at 3 mg/kg, iv; type: ADME, organism-based; parameters: dose 3 mg/kg, route intravenous; settings: in vivo, read-out: Vdss
[20] = biological target: Mitogen-activated protein kinase kinase kinase 14 (Homo sapiens, UniProt Q99558); assay: Inhibition of NIK
[21] = biological target: Tyrosine-protein kinase ZAP-70 (Homo sapiens, UniProt P43403); assay: Inhibition of ZAP70
[22] = biological target: Mitogen-activated protein kinase kinase kinase 10 (Homo sapiens, UniProt Q02779); assay: Inhibition of MLK2
[23] = biological target: Serine/threonine-protein kinase Nek1 (Homo sapiens) (UniProt Q96PY6); assay: Inhibition of NEK1 at 1 uM
[24] = biological target: Mitogen-activated protein kinase 9 (Homo sapiens) (UniProt P45984); assay: Inhibition of JNK2 at 2 uM
[25] = biological target: Serine/threonine-protein kinase PLK1 (Homo sapiens, UniProt P53350); assay: Inhibition of PLK1
[26] = biological target: RAC-beta serine/threonine-protein kinase (Homo sapiens) (UniProt P31751); assay: Inhibition of AKT2 at 1 uM
[27] = biological target: Fibroblast growth factor receptor 2 (Homo sapiens) (UniProt P21802); assay: Inhibition of FGFR2 at 1 uM
[28] = Volume of distribution at steady state in mouse at 5 mg/kg, iv; type: ADME, organism-based; parameters: dose 5 mg/kg, route intravenous; settings: in vivo, read-out: Vdss
[29] = biological target: Epidermal growth factor receptor (Homo sapiens) (UniProt P00533); assay: Inhibition of EGFR at 1 uM
[30] = biological target: cAMP-dependent protein kinase catalytic subunit PRKX (Homo sapiens) (UniProt P51817); assay: Inhibition of PRKX at 1 uM
[31] = biological target: Tyrosine-protein kinase JAK3 (Homo sapiens, UniProt P52333); assay: Inhibition of JAK3
[32] = Inhibition of PKA
[33] = biological target: Tyrosine-protein kinase Lyn (Homo sapiens) (UniProt P07948); assay: Inhibition of LYN at 2 uM
[34] = biological target: Serine/threonine-protein kinase Chk1 (Homo sapiens) (UniProt O14757); assay: Inhibition of CHK1 at 2 uM
[35] = biological target: Rho-associated protein kinase 1 (Homo sapiens, UniProt Q13464); assay: Inhibition of ROCK1
[36] = biological target: Ribosomal protein S6 kinase alpha-3 (Homo sapiens) (UniProt P51812); assay: Inhibition of RSK2 at 1 uM
[37] = biological target: Protein kinase C beta type (Homo sapiens) (UniProt P05771); assay: Inhibition of PKCbeta1 at 1 uM
[38] = biological target: Ribosomal protein S6 kinase beta-1 (Homo sapiens) (UniProt P23443); assay: Inhibition of P70S6K at 2 uM
[39] = biological target: PAS domain-containing serine/threonine-protein kinase (Homo sapiens) (UniProt Q96RG2); assay: Inhibition of PASK at 1 uM
[40] = biological target: Serine/threonine-protein kinase MARK2 (Homo sapiens) (UniProt Q7KZI7); assay: Inhibition of PAR-1Balpha at 1 uM
[41] = biological target: Mitogen-activated protein kinase 10 (Homo sapiens, UniProt P53779); assay: Inhibition of JNK3
[42] = biological target: Protein kinase C eta type (Homo sapiens) (UniProt P24723); assay: Inhibition of PKCeta at 1 uM
[43] = tested on: HT-29; assay: Antiproliferative activity against human HT-29 cells; type: functional, cell-based
[44] = biological target: RAF proto-oncogene serine/threonine-protein kinase (Homo sapiens) (UniProt P04049); assay: Inhibition of cRAF at 2 uM
[45] = biological target: Rho-associated protein kinase 2 (Homo sapiens) (UniProt O75116); assay: Inhibition of ROCK 2 at 2 uM
[46] = biological target: Proto-oncogene tyrosine-protein kinase receptor Ret (Homo sapiens) (UniProt P07949); assay: Inhibition of RET at 1 uM
[47] = biological target: RAC-gamma serine/threonine-protein kinase (Homo sapiens, UniProt Q9Y243); assay: Inhibition of AKT3
[48] = Plasma concentration in mouse at 33 mg/kg, po after 4 hrs; type: ADME, organism-based; parameters: dose 33 mg/kg, route oral
[49] = biological target: Tyrosine-protein kinase Yes (Homo sapiens) (UniProt P07947); assay: Inhibition of YES at 1 uM
[50] = biological target: Serine/threonine-protein kinase Nek2 (Homo sapiens) (UniProt P51955); assay: Inhibition of NEK2 at 1 uM
[51] = biological target: MAP kinase-activated protein kinase 3 (Homo sapiens) (UniProt Q16644); assay: Inhibition of MAPKAPK3 at 1 uM
[52] = biological target: Serine/threonine-protein kinase 4 (Homo sapiens) (UniProt Q13043); assay: Inhibition of MST1 at 1 uM
Serine/threonine-protein kinase 4 (Homo sapiens), sequence (Q13043 whole entry): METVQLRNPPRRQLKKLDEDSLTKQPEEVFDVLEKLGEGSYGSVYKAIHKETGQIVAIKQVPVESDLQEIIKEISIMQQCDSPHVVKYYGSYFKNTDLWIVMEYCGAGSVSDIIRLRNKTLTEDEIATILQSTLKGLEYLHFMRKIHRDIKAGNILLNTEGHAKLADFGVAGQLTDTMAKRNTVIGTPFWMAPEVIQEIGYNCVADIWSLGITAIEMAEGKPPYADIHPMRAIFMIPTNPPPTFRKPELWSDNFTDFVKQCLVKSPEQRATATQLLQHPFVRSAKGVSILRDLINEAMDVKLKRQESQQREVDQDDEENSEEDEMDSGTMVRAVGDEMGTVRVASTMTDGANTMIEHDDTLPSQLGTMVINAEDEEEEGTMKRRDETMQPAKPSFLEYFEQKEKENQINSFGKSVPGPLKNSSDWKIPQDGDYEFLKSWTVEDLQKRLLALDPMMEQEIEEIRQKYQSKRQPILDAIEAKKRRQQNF

Protein kinase C beta type (Homo sapiens), sequence (P05771 2-671 limits assumed): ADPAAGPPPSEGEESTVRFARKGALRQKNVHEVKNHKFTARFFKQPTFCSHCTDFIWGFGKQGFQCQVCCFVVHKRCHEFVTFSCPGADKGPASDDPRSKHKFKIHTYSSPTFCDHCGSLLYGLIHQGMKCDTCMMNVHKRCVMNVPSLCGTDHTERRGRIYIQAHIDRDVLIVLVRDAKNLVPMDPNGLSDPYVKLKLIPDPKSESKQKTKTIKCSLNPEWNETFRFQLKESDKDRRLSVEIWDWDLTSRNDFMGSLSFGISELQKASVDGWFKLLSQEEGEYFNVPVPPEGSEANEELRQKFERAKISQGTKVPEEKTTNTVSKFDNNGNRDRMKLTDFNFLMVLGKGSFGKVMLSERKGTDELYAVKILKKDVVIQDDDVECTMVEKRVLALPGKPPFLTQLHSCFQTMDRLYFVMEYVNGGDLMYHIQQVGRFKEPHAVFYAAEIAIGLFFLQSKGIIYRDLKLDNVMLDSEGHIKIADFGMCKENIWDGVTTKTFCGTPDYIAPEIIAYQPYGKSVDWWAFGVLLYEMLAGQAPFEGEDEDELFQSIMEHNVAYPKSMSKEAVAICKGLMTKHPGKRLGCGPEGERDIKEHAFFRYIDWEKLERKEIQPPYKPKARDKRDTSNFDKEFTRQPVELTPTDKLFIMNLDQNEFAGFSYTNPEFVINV
Epidermal growth factor receptor (Homo sapiens), sequence (P00533 whole entry): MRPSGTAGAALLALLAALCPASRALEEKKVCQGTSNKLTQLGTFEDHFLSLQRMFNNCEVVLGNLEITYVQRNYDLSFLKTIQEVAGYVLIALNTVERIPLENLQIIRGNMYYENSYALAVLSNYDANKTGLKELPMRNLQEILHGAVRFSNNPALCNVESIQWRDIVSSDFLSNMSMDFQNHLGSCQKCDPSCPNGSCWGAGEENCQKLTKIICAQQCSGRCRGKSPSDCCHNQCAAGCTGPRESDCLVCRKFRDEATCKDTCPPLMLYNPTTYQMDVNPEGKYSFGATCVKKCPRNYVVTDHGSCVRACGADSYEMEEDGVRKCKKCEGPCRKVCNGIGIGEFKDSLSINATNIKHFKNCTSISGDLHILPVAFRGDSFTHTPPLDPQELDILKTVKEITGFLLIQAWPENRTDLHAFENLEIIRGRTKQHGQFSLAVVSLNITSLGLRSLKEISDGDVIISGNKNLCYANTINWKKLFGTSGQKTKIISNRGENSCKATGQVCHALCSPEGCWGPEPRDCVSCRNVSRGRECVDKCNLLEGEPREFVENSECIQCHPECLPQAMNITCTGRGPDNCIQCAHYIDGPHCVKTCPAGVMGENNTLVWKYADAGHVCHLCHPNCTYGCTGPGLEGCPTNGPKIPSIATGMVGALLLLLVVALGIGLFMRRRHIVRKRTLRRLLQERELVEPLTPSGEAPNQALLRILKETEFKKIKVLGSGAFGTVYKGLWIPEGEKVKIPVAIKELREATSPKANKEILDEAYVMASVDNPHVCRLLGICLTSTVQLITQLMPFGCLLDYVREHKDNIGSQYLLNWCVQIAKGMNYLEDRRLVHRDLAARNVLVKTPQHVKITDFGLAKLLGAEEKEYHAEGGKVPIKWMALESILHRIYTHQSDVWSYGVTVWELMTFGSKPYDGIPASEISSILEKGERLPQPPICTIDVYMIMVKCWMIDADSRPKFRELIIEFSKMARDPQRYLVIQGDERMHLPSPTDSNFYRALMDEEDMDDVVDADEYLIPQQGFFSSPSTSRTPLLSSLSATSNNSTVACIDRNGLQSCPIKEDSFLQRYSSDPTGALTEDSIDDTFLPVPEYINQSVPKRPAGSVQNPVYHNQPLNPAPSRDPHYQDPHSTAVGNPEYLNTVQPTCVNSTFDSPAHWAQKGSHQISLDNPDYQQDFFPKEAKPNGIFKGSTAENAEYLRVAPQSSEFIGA
Serine/threonine-protein kinase Nek1 (Homo sapiens), sequence (Q96PY6 whole entry): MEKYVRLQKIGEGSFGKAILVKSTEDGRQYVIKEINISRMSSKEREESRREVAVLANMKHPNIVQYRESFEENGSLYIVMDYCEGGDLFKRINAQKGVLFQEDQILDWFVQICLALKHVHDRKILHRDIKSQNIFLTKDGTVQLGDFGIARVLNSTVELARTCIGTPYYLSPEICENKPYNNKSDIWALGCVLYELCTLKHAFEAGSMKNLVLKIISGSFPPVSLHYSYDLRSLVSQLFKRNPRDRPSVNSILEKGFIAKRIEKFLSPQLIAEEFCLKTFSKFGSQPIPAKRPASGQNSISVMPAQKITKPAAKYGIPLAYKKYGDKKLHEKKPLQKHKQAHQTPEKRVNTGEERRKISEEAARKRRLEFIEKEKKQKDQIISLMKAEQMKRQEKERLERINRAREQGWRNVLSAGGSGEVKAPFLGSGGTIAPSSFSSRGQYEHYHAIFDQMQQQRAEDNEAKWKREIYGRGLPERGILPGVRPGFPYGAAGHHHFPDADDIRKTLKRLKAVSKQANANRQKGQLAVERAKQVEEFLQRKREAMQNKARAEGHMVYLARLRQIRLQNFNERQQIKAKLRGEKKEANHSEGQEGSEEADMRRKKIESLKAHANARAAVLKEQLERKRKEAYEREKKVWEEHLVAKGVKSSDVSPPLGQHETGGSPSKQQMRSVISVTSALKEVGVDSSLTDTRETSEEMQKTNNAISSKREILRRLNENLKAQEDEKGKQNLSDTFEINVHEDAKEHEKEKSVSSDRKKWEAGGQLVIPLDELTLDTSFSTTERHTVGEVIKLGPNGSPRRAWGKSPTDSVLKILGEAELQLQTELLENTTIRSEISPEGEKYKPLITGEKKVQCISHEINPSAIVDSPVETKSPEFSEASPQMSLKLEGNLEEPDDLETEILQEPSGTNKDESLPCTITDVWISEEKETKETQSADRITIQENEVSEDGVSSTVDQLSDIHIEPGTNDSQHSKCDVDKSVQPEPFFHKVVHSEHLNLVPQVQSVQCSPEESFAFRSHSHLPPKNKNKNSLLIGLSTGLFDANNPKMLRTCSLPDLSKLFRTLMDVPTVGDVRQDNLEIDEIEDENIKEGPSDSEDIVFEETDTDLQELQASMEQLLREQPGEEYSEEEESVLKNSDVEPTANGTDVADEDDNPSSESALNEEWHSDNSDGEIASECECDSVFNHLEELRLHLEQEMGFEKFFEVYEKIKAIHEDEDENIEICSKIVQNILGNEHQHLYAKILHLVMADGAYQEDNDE
Serine/threonine-protein kinase PLK1, sequence (P53350 whole entry): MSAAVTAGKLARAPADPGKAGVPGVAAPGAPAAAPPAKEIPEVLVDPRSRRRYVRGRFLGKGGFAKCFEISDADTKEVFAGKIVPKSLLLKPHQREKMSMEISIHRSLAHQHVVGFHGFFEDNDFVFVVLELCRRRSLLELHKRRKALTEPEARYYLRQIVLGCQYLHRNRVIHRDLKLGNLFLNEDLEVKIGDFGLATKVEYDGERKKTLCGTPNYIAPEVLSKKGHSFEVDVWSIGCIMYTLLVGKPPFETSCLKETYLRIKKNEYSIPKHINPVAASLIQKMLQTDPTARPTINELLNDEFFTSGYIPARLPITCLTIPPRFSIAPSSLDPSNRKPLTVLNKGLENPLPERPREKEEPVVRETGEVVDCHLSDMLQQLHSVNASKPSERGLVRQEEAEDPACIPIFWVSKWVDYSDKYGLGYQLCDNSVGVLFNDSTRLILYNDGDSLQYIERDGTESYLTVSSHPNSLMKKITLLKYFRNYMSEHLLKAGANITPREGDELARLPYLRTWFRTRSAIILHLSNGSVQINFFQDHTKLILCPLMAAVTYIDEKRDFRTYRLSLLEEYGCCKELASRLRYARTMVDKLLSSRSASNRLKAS
RAC-gamma serine/threonine-protein kinase, sequence (Q9Y243 whole entry): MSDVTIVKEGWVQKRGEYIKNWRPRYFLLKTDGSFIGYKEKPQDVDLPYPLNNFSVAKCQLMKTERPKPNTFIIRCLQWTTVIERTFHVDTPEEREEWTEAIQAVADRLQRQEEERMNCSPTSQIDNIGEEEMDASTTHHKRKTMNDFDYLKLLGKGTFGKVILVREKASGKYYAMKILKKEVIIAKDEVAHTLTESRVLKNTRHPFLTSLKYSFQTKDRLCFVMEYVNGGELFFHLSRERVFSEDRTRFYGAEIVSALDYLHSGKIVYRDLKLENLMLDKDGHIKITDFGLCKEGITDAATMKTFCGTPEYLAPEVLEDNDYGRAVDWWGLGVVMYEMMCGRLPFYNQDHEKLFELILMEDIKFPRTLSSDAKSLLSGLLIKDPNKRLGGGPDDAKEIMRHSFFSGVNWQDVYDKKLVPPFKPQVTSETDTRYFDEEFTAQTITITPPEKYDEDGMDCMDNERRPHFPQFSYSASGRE
cAMP-dependent protein kinase catalytic subunit PRKX (Homo sapiens), sequence (P51817 whole entry): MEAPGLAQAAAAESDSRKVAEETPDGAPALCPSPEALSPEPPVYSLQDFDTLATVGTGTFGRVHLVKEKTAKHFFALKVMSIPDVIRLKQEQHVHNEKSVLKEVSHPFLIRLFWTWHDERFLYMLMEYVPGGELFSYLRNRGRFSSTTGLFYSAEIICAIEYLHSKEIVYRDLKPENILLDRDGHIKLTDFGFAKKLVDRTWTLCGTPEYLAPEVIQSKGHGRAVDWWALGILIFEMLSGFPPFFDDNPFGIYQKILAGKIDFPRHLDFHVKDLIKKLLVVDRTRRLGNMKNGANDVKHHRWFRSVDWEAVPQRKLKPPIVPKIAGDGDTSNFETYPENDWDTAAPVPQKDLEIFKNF

Compound: Cc1cnc(Nc2ccc(F)cc2Cl)nc1-c1c[nH]c(C(=O)N[C@H](CO)c2cccc(Cl)c2)c1
- AUC(0-t) at 8 h [1]: 1600 ng·h/mL
- inhibition [2]: 4%
- inhibition [3]: 10%
- inhibition [4]: 0%
- half-life [5]: 4.4 h
- inhibition [6]: 56%
- inhibition [7]: 0%
- inhibition [8]: 11%
- Ki [9]: > 10 µM
- inhibition [10]: 0%
- inhibition [11]: 3%
- inhibition [12]: 21%
- inhibition [13]: 2%
- inhibition [14]: 3%
- inhibition [15]: 0%
- Ki [16]: > 4 µM
- inhibition [17]: 0%
- inhibition [18]: 54%
- Vd [19]: 4.9 L/kg
- Ki [20]: > 5 µM
- Ki [21]: > 4 µM
- Ki [22]: > 10 µM
- inhibition [23]: 6%
- inhibition [24]: 43%
- Ki [25]: > 4 µM
- inhibition [26]: 0%
- inhibition [27]: 12%
- Vd [28]: 5.6 L/kg
- inhibition [29]: 6%
- inhibition [30]: 3%
- Ki [31]: > 4 µM
- Ki [32]: > 4 µM
- inhibition [33]: 7%
- inhibition [34]: 40%
- Ki [35]: 1.4 µM
- inhibition [36]: 6%
- inhibition [37]: 4%
- inhibition [38]: 18%
- inhibition [39]: 19%
- inhibition [40]: 5%
- Ki [41]: 1.4 µM
- inhibition [42]: 2%
- IC50 [43]: 0.048 µM
- inhibition [44]: 3%
- inhibition [45]: 57%
- inhibition [46]: 3%
- Ki [47]: > 4 µM
- concentration at 4 h [48]: 488 ng/mL
- inhibition [49]: 5%
- inhibition [50]: 3%
- inhibition [51]: 5%
- inhibition [52]: 4%
